Data reported in US10246426B2, “Triazole compounds as T-type calcium channel blockers” (IDORSIA PHARMACEUTICALS LTD, priority 2014, dated 2019).

Molecular target: Cav3.2 (Homo sapiens, UniProt O95180)
Experiment: Calcium flux FLIPR assay, HEK293 cells recombinantly expressing Cav3.2
Type: cell-based
Conditions: Cav3.2-channel, Ca2+ entry stimulated by 10 mM CaCl2
Summary of the method: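 Fluo-4-loaded HEK293 cells stably expressing Cav3.2, seeded overnight at 37 °C; compounds diluted in TEAC buffer (pH 7.2) and preincubated 3 min before Ca2+ entry triggered with CaCl2 at 10 mM final. Area under FLIPR fluorescence trace fitted sigmoidally; IC50 relative to vehicle signal.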

Chain of Cav3.2 (O95180 whole entry, looked up): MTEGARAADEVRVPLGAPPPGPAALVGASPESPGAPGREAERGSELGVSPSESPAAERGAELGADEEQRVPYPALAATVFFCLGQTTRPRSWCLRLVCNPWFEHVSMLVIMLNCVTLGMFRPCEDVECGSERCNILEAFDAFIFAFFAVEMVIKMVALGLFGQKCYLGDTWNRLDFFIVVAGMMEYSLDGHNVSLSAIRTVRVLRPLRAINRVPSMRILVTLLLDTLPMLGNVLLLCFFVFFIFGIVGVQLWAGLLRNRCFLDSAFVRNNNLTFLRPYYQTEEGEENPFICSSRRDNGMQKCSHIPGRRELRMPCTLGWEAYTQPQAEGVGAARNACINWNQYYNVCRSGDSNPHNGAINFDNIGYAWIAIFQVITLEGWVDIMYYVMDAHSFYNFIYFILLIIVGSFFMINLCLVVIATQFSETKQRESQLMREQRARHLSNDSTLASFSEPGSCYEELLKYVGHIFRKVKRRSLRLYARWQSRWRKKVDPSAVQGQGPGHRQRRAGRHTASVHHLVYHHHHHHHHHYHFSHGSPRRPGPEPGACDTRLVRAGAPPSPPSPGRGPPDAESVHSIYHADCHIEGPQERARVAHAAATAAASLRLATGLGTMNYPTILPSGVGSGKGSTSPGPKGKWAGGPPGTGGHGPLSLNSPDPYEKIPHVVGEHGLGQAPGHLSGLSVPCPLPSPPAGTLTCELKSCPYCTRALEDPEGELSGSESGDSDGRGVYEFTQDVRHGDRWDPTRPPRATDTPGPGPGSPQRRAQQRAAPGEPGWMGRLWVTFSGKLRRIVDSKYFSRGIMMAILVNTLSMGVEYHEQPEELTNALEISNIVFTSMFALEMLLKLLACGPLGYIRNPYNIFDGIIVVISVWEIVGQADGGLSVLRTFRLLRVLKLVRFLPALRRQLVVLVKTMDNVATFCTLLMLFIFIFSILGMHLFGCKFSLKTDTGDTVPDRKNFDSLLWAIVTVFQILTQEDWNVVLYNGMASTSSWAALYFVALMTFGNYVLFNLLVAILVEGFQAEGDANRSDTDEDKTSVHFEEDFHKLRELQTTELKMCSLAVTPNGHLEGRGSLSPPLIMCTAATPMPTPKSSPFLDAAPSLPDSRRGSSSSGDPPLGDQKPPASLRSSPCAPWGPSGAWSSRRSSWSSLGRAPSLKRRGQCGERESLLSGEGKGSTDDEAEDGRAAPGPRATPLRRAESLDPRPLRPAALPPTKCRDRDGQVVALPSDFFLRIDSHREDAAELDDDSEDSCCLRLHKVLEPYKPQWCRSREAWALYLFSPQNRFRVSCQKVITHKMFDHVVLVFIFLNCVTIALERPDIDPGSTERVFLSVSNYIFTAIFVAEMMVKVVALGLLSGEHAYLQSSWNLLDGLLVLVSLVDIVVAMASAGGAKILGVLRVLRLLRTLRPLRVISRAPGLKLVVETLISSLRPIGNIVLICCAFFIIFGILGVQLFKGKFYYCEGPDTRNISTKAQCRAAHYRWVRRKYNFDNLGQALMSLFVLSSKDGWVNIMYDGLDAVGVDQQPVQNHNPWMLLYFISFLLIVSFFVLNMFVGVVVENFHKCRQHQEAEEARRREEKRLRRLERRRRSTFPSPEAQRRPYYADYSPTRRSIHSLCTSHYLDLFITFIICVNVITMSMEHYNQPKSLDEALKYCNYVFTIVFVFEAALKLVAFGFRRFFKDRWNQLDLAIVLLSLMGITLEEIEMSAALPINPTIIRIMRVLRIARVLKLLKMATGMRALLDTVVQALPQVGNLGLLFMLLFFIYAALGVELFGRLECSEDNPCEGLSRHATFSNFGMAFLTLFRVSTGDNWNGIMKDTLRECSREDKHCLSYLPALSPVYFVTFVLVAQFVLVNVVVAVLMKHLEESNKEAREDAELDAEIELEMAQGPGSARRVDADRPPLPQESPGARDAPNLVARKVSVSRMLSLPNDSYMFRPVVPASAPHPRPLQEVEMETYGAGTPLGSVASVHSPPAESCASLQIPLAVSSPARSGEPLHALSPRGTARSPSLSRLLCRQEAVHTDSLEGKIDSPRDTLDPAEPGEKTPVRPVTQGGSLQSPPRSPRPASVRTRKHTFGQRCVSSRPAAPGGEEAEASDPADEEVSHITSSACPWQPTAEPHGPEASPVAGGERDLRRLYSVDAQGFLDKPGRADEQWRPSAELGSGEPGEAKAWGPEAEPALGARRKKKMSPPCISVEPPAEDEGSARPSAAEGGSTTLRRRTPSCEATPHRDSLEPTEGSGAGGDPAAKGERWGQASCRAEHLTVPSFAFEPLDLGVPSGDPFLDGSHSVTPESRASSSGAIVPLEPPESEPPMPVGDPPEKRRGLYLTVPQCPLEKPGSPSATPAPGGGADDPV

Row | SMILES | IC50 [nM]
1 | COc1ccc(Cn2ncc(NC(=O)Cc3ccc(OC4CC(F)(F)C4)cc3)n2)cc1C#N [Example 223, N-[2-(3-Cyano-4-methoxy-benzyl)-2H-[1,2,3]triazol-4-yl]-2-[4-(3,3-difluoro-cyclobutoxy)-phenyl]-acetamide] | 120
2 | COc1cc(Cn2ncc(NC(=O)Cc3ccc(C4(C(F)(F)F)CC4)cc3)n2)cc(F)c1F [Example 227, N-[2-(3,4-Difluoro-5-methoxy-benzyl)-2H-[1,2,3]triazol-4-yl]-2-[4-(1-trifluoromethyl-cyclopropyl)-phenyl]-acetamide] | 770
3 | COc1cc(Cn2ncc(NC(=O)Cc3ccc(C4(OC)COC4)cc3)n2)cc(F)c1F [Example 228, N-[2-(3,4-Difluoro-5-methoxy-benzyl)-2H-[1,2,3]triazol-4-yl]-2-[4-(3-methoxy-oxetan-3-yl)-phenyl]-acetamide] | 300
4 | COc1cc(Cn2ncc(NC(=O)Cc3ccc(OCC4(F)COC4)cc3)n2)cc(F)c1F [Example 229, N-[2-(3,4-Difluoro-5-methoxy-benzyl)-2H-[1,2,3]triazol-4-yl]-2-[4-(3-fluoro-oxetan-3-ylmethoxy)-phenyl]-acetamide] | 130
5 | COc1cc(Cn2ncc(NC(=O)Cc3ccc(OC4CC(F)(F)C4)cc3)n2)cc(F)c1F [Example 230, 2-[4-(3,3-Difluoro-cyclobutoxy)-phenyl]-N-[2-(3,4-difluoro-5-methoxy-benzyl)-2H-[1,2,3]triazol-4-yl]-acetamide] | 350
6 | Cn1ncc2cc(CC(=O)Nc3cnn(Cc4ccc(C#N)cc4)n3)ccc21 [Example 234, N-[2-(4-Cyano-benzyl)-2H-[1,2,3]triazol-4-yl]-2-(1-methyl-1H-indazol-5-yl)-acetamide] | 76
7 | Cc1cc(Cn2ncc(NC(=O)Cc3ccc(C4(F)COC4)cc3)n2)ccc1C#N [Example 235, N-[2-(4-Cyano-3-methyl-benzyl)-2H-[1,2,3]triazol-4-yl]-2-[4-(3-fluoro-oxetan-3-yl)-phenyl]-acetamide] | 92
8 | COc1ccc(Cn2ncc(NC(=O)Cc3ccc(N4CCCC4)nc3)n2)cc1C#N [Example 236, N-[2-(3-Cyano-4-methoxy-benzyl)-2H-[1,2,3]triazol-4-yl]-2-(6-pyrrolidin-1-yl-pyridin-3-yl)-acetamide] | 160
9 | COC1(c2ccc(CC(=O)Nc3cnn(Cc4ccc(C#N)cc4)n3)cc2)COC1 [Example 237, N-[2-(4-Cyano-benzyl)-2H-[1,2,3]triazol-4-yl]-2-[4-(3-methoxy-oxetan-3-yl)-phenyl]-acetamide] | 200
10 | Cc1cc(CC(=O)Nc2cnn(Cc3ccc(C#N)cn3)n2)ccc1OCC(F)(F)F [Example 242, N-[2-(5-Cyano-pyridin-2-ylmethyl)-2H-[1,2,3]triazol-4-yl]-2-[3-methyl-4-(2,2,2-trifluoro-ethoxy)-phenyl]-acetamide] | 54
11 | Cc1cn(C)c2ccc(CC(=O)Nc3cnn(Cc4ccc(C#N)cn4)n3)cc12 [Example 243, N-[2-(5-Cyano-pyridin-2-ylmethyl)-2H-[1,2,3]triazol-4-yl]-2-(1,3-dimethyl-1H-indol-5-yl)-acetamide] | 110
12 | CC(C)(C)c1ccc(CC(=O)Nc2cnn(Cc3ccc(C#N)cn3)n2)cc1 [Example 244, 2-(4-tert-Butyl-phenyl)-N-[2-(5-cyano-pyridin-2-ylmethyl)-2H-[1,2,3]triazol-4-yl]-acetamide] | 34
13 | N#Cc1ccc(Cn2ncc(NC(=O)Cc3ccc(OC4CC(F)(F)C4)cc3)n2)nc1 [Example 246, N-[2-(5-Cyano-pyridin-2-ylmethyl)-2H-[1,2,3]triazol-4-yl]-2-[4-(3,3-difluoro-cyclobutoxy)-phenyl]-acetamide] | 680
14 | N#Cc1ccc(Cn2ncc(NC(=O)Cc3cnc(N4CCCC4)c(F)c3)n2)nc1 [Example 247, N-[2-(5-Cyano-pyridin-2-ylmethyl)-2H-[1,2,3]triazol-4-yl]-2-(5-fluoro-6-pyrrolidin-1-yl-pyridin-3-yl)-acetamide] | 690
15 | CC(C)(c1ccc(CC(=O)Nc2cnn(Cc3ccc(C#N)c(F)c3)n2)cc1)C(F)(F)F [Example 249, N-[2-(4-Cyano-3-fluoro-benzyl)-2H-[1,2,3]triazol-4-yl]-2-[4-(2,2,2-trifluoro-1,1-dimethyl-ethyl)-phenyl]-acetamide] | 91

The remaining lines, values ahead:

Row | IC50 [nM] | SMILES
16 | 190 | COc1cc(Cn2ncc(NC(=O)Cc3ccc(C4(F)COC4)cc3)n2)cc(F)c1F [Example 224, N-[2-(3,4-Difluoro-5-methoxy-benzyl)-2H-[1,2,3]triazol-4-yl]-2-[4-(3-fluoro-oxetan-3-yl)-phenyl]-acetamide]
17 | 560 | COc1cc(Cn2ncc(NC(=O)Cc3ccc4cnn(C)c4c3)n2)cc(F)c1F [Example 225, N-[2-(3,4-Difluoro-5-methoxy-benzyl)-2H-[1,2,3]triazol-4-yl]-2-(1-methyl-1H-indazol-6-yl)-acetamide]
18 | 250 | Cc1ccc(Cn2ncc(NC(=O)Cc3ccc(C4(C(F)(F)F)CC4)cc3)n2)cc1C#N [Example 226, N-[2-(3-Cyano-4-methyl-benzyl)-2H-[1,2,3]triazol-4-yl]-2-[4-(1-trifluoromethyl-cyclopropyl)-phenyl]-acetamide]
19 | 36 | N#Cc1ccc(Cn2ncc(NC(=O)Cc3ccc(C4(C#N)CC4)cc3)n2)cc1F [Example 231, 2-[4-(1-Cyano-cyclopropyl)-phenyl]-N-[2-(4-cyano-3-fluoro-benzyl)-2H-[1,2,3]triazol-4-yl]-acetamide]
20 | 110 | N#Cc1ccc(Cn2ncc(NC(=O)Cc3ccc(S(F)(F)(F)(F)F)cc3)n2)cc1F [Example 232, N-(2-(4-cyano-3-fluorobenzyl)-2H-1,2,3-triazol-4-yl)-2-(4-(pentafluoro-λ6-sulfanyl)phenyl)acetamide]
21 | 24 | N#Cc1ccc(Cn2ncc(NC(=O)Cc3ccc(OCC4CC(F)(F)C4)cc3)n2)cc1 [Example 238, N-[2-(4-Cyano-benzyl)-2H-[1,2,3]triazol-4-yl]-2-[4-(3,3-difluoro-cyclobutylmethoxy)-phenyl]-acetamide]
22 | 210 | COc1cc(Cn2ncc(NC(=O)Cc3ccc(C(C)(C)C)cc3)n2)ccc1C#N [Example 239, 2-(4-tert-Butyl-phenyl)-N-[2-(4-cyano-3-methoxy-benzyl)-2H-[1,2,3]triazol-4-yl]-acetamide]
23 | 180 | COc1cc(Cn2ncc(NC(=O)Cc3ccc4c(c3)c(C)cn4C)n2)cc(F)c1F [Example 240, N-[2-(3,4-Difluoro-5-methoxy-benzyl)-2H-[1,2,3]triazol-4-yl]-2-(1,3-dimethyl-1H-indol-5-yl)-acetamide]
24 | 190 | N#Cc1ccc(Cn2ncc(NC(=O)Cc3ccc(C4(C(F)(F)F)CC4)cc3)n2)nc1 [Example 245, N-[2-(5-Cyano-pyridin-2-ylmethyl)-2H-[1,2,3]triazol-4-yl]-2-[4-(1-trifluoromethyl-cyclopropyl)-phenyl]-acetamide]
